Results from patent US9610322B2, “Macrocyclic insulin-degrading enzyme (IDE) inhibitors and uses thereof” (President and Fellows of Harvard College, priority 2011, dated 2017).

Tests used:
recombinant human IDE = recombinant human IDE (Homo sapiens (Human), UniProt P14735); test: IDE protease assay, cleavage of fluorophore-quencher substrate peptide; assay type: biochemical; conditions: for stronger potency of trans-olefin isomer than corresponding cis-olefin isomer: trans vs cis olefin
Description: In vitro protease assays: Protease assays with IDE and neprilysin were performed using Mca-RPPGFSAFK(Dnp)-OH substrate peptide (R&D Systems, SEQ ID NO: 6) and purified recombinant human IDE and recombinant human neprilysin (R&D Systems) according to the manufacturer's instructions. For IDE, 2 μL of small molecule dissolved in DMSO was combined with 48 μL, 0.2 μg/mL IDE in IDE assay buffer (50 mM Tris, 1 M NaCl, pH 7.5). 50 μL, of 20 μM substrate peptide in IDE assay buffer was then added to initiate the reaction, and peptide cleavage was monitored on a fluorescent plate reader (excitation=320 nm; emission=405 nm) for 5 minutes. The above protocol was also used for assaying neprilysin activity, substituting the neprilysin assay buffer (50 mM Tris, 0.05% Brij-35, pH 9.0).
Compounds were synthesized as described previously;^9 in most cases the macrocycle synthesis yielded two isomers corresponding to the cis and trans olefins generated after macrocyclization. Macrocycles were assayed for IDE inhibition by monitoring cleavage of a substrate peptide^13 containing a fluorophore-quencher pair such that cleavage of the model substrate results in increased fluorescence.

[1] = Biodistribution assay after IP injection, LC-MS of organ extracts; assay type: in vivo, mouse; conditions: mice, intraperitoneal injection, 45 minutes
Description: Macrocycles were diluted to 0.1 mg/mL or 1 mg/mL in PBS and IP-injected into a mouse to produce a concentration of 1 mg/kg or 10 mg/kg, respectively. After 45 minutes, organs were harvested, and the small-molecule fractions were extracted into a 2:1:1 mixture of chloroform:methanol:water. Samples were evaporated under a stream of nitrogen, resuspended in 100 μL of chloroform and subjected to LC-MS analysis.
The tissue distribution of enriched macrocycles after i.p. injection was examined. […] Briefly, compounds were injected at different concentrations intraperitoneally into mice, and plasma, brain, and pancreas were harvested after 45 minutes. Vehicle-only injections were performed as negative controls. We determined the relative amount of macrocycle present by extracting the organs with organic solvents and quantifying the amount of compound present by LC-MS analysis.

[2] = Preliminary pharmacokinetics after i.p. injection, LC-MS quantitation; conditions: mice
plasma IDE activity = test: Plasma IDE activity in mice injected with inhibitor; assay type: in vivo
Description: Finally, we compared plasma IDE activity in mice injected with 6b with plasma IDE activity in control mice injected with vehicle alone (18:1:1, saline:DMSO:Tween-80). Plasma IDE activity 60 min after 10 mg/kg, 20 mg/kg, or 40 mg/kg i.p. injection of 6b was inhibited by ≧90% (FIG. 9).

[3] = previous indications; cited from earlier work

Sequence of recombinant human IDE (P14735 whole entry): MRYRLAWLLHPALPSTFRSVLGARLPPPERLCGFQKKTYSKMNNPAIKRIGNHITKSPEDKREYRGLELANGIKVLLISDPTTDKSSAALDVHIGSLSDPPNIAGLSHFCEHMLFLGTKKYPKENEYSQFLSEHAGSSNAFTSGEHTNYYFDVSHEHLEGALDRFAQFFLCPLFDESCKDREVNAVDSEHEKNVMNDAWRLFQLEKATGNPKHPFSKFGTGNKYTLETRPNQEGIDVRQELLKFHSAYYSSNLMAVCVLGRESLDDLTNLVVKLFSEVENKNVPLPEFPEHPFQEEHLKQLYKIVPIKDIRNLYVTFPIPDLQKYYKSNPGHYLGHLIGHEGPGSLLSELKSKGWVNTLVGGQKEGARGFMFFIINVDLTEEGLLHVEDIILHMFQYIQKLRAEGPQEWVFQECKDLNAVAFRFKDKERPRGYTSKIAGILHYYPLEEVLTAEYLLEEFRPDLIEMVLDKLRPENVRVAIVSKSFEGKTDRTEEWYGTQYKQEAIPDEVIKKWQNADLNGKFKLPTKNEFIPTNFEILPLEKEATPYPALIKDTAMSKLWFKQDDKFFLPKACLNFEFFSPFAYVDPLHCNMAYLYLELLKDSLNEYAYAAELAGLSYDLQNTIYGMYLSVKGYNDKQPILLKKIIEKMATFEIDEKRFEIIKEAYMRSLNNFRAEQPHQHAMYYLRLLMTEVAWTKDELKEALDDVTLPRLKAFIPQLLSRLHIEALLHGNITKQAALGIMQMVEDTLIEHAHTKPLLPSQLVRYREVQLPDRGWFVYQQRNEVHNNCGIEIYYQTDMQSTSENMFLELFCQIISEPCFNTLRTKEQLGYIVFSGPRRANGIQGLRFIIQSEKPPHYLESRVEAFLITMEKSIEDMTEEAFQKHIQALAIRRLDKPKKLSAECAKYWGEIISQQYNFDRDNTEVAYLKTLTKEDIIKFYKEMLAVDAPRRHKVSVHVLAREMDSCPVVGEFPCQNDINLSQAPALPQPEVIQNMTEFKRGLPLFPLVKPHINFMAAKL

NC(=O)C1CCCCNC(=O)C(Cc2ccc(C(=O)c3ccccc3)cc2)NC(=O)C(CC2CCCCC2)NC(=O)CC(O)C(CC2CCCCC2)NC(=O)C=CC(=O)N1 (mixture of isomers) [Compound 3]
stronger potency of trans-olefin isomer than corresponding cis-olefin isomer (recombinant human IDE): > 10 fold

NC(=O)C1CCCCNC(=O)C(Cc2ccc(C(=O)c3ccccc3)cc2)NC(=O)C(CC2CCCCC2)NC(=O)C(CC2CC2)NC(=O)C=CC(=O)N1 (mixture of isomers) [Compound 5]
stronger potency of trans-olefin isomer than corresponding cis-olefin isomer (recombinant human IDE): > 10 fold

NC(=O)CCC1NC(=O)C=CC(=O)NC(C(N)=O)CCCCNC(=O)C(Cc2ccc(C(=O)c3ccccc3)cc2)NC(=O)C(CC2CCCCC2)NC1=O (mixture of isomers) [Compound 6]
stronger potency of trans-olefin isomer than corresponding cis-olefin isomer (recombinant human IDE): > 10 fold

NC(=O)CCC1NC(=O)C=CC(=O)NC(C(N)=O)CCCCNC(=O)CNC(=O)C(CC2CCCCC2)NC1=O (stereo not shown) [Compound 1]
activity against IDE in words (recombinant human IDE): inactive

NC(=O)CCC1NC(=O)C=CC(=O)NC(C(N)=O)CCCCNC(=O)C(Cc2ccc(C(=O)c3ccccc3)cc2)NC(=O)C(CC2CCCCC2)NC1=O (stereo not shown) [Compound 6b]
detection in brain [1]: none of the three compounds could be detected in the brain
detection in pancreas [1]: could be detected
detection in plasma [1]: could be detected
macrocycle concentrations in the plasma compared among compounds [1]: comparable
peak blood concentration ([2]; i.p. 20 mg/kg): 0.2 µM
time of peak blood concentration ([2]; i.p. 20 mg/kg): 60 min
tolerability of injections ([2]; i.p. 20 mg/kg in 18:1:1 saline:DMSO:Tween-80): well tolerated
inhibition of plasma IDE activity (plasma IDE activity; 60 min after 10 mg/kg i.p.): ≥ 90%
inhibition of plasma IDE activity (plasma IDE activity; 60 min after 20 mg/kg i.p.): ≥ 90%
inhibition of plasma IDE activity (plasma IDE activity; 60 min after 40 mg/kg i.p.): ≥ 90%

NCCCC[C@@H]1NC(=O)/C=C/C(=O)NC(C(N)=O)CCCCNC(=O)[C@@H](Cc2ccc(C(=O)c3ccccc3)cc2)NC(=O)[C@H](CC2CCCCC2)NC1=O (stereo partly shown) [Compound 20]
effect of modification on IDE inhibitor potency relative to 6b, in words (recombinant human IDE; derivatives of 6b): equipotent

N=C(N)NCCC[C@H](NC(=O)[C@@H](CC(=O)NO)Cc1ccc2ccccc2c1)C(=O)N[C@@H](Cc1c[nH]c2ccccc12)C(=O)N[C@@H](CCC(=O)O)C(N)=O [Ii1]
stability under physiological conditions [3]: not sufficiently stable under physiological conditions
